“Also recorded” adds a separate entry of the source.

Consider four molecules from US20230250172A1, “IMPLANTABLE SCAFFOLDS AND USES THEREOF FOR IMMUNOTHERAPY AND OTHER USES” (The Regents of the University of California, priority 2019, published 2023).

One assay addresses TGF-beta receptor (TβR). The settings on record: reported IC50 value (FIG. 13B); cited from earlier work.
Assay [1] concerns B16-F10-Ova melanoma tumors. The assay can be described thus: melanoma model, cell-free scaffold implanted adjacent to tumor. In kind it is in vivo, mouse. The following applies: for T cell recruitment and tumor clearance compared to control scaffolds: chemokine in full scaffold. From the text: 2-5×10^5 (2-5×105) B16F10-OVA tumor cells were subcutaneously injected into right or both (in the contralateral tumor model) right and left flanks of C57BL/6J WT mice (6-8 weeks old). These melanoma-derived cells are transfected to express chicken ovalbumin peptide (OVA)34. Five days after tumor cell injection, scaffolds were surgically implanted subcutaneously into the same approximate region of the tumors in both flanks. For cell-loaded studies, ex vivo activated OT-I T cells were transferred either intravenously using retro-orbital injections (100 microliters [μL] per animal) or implantable scaffolds at the same day. Tumor size was assessed over time using a digital caliber until day 22 at which animals were sacrificed and the tumor, draining lymph nodes, and spleen were extracted. Tumor mass was measured using a digital balance before digesting the tumor tissue for flow cytometry or fixing it for tissue sectioning. Tumors were digested by incubating in collagenase and DNase I (50 micrograms/mL [μg/mL]) at 37° C. for 15 min. These enzymes were inactivated with ethylenediamine tetra-acetic acid (EDTA) (20 microliters/mL [μL/mL] of solution). […] Tissue sections were imaged by a fluorescence microscope (KEYENCE™ BZ-X800, Osaka, Japan).
Typically, mice received subcutaneous injections of B16-F10 cells to their right flank followed by the scaffold implantation adjacent to the tumor once it was palpable. Without any further treatment animal's health was monitored and were euthanized 17 days afterwards. […]
2-5×10^5 B16F10-OVA or B16F10 tumor cells were subcutaneously injected into right or both (in the contralateral tumor model) right and left flanks of wild-type C57BL/6J WT mice (6-8 weeks old, Jackson Lab). […] Tumor size was assessed over time using a digital caliper until day 22 at which animals were sacrificed and the tumor, draining lymph nodes, and spleen were extracted.
Tumor masses were measured using a digital balance before digesting the tumor tissue for flow cytometry or fixing it for tissue sectioning. […]

For assay [2], the system named is formation of regulatory T cells (Treg), Foxp3 expression. The assay can be described thus: in vitro inhibition of Treg formation (2D). It counts as cell-based, mouse. How it is done:
For Treg formation experiments CD4+ T cells were purified from mouse spleen as mentioned above. Cells were then either activated on scaffolds or on anti-CD3e antibody ([…]) coated plates with the anti-CD28 antibody ([…]) supplemented medium. At the same time transforming growth factor-beta (TGF-beta; TGF-β) (15 ng/ml) was added to the media. After four days regulatory T cells were removed and stained with antibodies for flow cytometry analysis.
For Treg formation experiments CD4+ T cells were purified from mouse spleen as mentioned above. Cells were then either activated on scaffolds or on anti-CD3e antibody (8 μg/mL) coated plates with the anti-CD28 antibody (2 μg/mL) supplemented medium. At the same time TGF-β (15 ng/mL) was added to the media. After four days regulatory T cells were removed, fixed, permeabilized, and stained with antibodies for flow cytometric analysis of Foxp3 expression.

Another assay has as its system B16F10-OVA tumor cells. Nature of the assay: Transwell migration assay of tumor cells. In kind it is cell-based, mouse. The settings on record: hydrogels containing CCL21; 8 h. How it is done: The migration assay to evaluate the role of chemokines on recruitment of T cells and melanoma cancer in the presence and absence of magnetic particles was performed using regular Transwell migration (Majedi, F. S. et al. Cytokine Secreting Microparticles Engineer the Fate and the Effector Functions of T-Cells. Adv. Mater. 30, 1703178 (2018)). […]
The migration assay to evaluate the role of chemokines on recruitment of T cells and melanoma cells in the presence and absence of chemokine-functionalized scaffolds was performed using regular Transwell migration as reported. […]

For `Cc1cccc(-c2[nH]c(C(C)(C)C)nc2-c2ccc3c(c2)OCO3)n1` [SB505124], the IC50 at TGF-beta receptor (TβR) was 0.129 µM.

“CXCL12: stromal cell-derived factor 1 chemokine, used in the scaffold instead of CCL21”: the “T cell recruitment and tumor clearance compared to control scaffolds” value in assay [1] was “successfully recruited T cells and helped clear tumors”.

Take `Cc1cccc(-c2nn3c(c2-c2ccnc4ccc(C(N)=O)cc24)CCC3)n1` [LY2157299, galunisertib]: the Treg formation suppressed entry in assay [2] (2D, aAPCs, soluble TGF-β in media, soluble TGFbi 10 uM or PLGA NPs with equivalent amount) is “about 40%”. Moreover, the “potency in suppressing Treg formation” value in assay [2] (at 1 nM concentrations, versus SB505124) is “about twice as potent as SB505124”.

B1: CCL21: chemokine (C-C motif) ligand 21, chemoattractant mixed into the scaffold (protein)
chain: SDGGGQDCCLKYSQKKIPYSIVRGYRKQEPSLGCPIPAILFSPRKHSKPELCANPEEGWVQNLMRRLDQPPAPGKQSPGCRKNRGTSKSGKKGKGSKGCKRTEQTQPSRG
With B1, the “recruitment of CD8+ T cells by chemokine released from scaffold” value in assay [1] (CCL21 versus SDF-1a (CXCL12), otherwise identical scaffolds) is “favors recruitment of CD8+ T cells more than SDF-1α; also recorded: favored recruitment of CD8+ T cells and disfavored CD4+ T cells as compared with CXCL12”. Besides, the “T cell recruitment and tumor clearance compared to control scaffolds” value in assay [1] is “successfully recruited T cells and helped clear tumors”. For the same molecule, in the assay on B16F10-OVA tumor cells, the “recruitment of tumor cells (chemotaxis)” value is listed as “no significant effect”.

A word on the IC50: it is the point on the concentration scale where inhibition reaches its midpoint.
